Source: patent publication US20260250289A1, “BICYCLIC HETEROCYCLES AND THEIR USE AS WRN INHIBITORS” (Novartis AG, priority 2022, published 2026)

How the values were obtained:
[1] = system: DLD1-WRN-KO cells; experiment: Proliferation assay DLD1-WRN-KO (CellTiterGlo, off-target effects); type: cell-based; details: 96 hours, geometric mean of at least 2
Procedure, shortened: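 DLD1 cells with CRISPR knockout of WRN were exposed overnight-seeded to eight 3-fold compound dilutions (0.1% DMSO) for 96 h at 37 °C. Viability was read as ATP by CellTiterGlo luminescence against a day-0 plate, giving GI50 and residual viability at top concentration.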

[2] = system: SW48 cells; experiment: Proliferation assay SW48 (CellTiterGlo); type: cell-based; details: Homo sapiens, SW48, 96 h, SW48 colon carcinoma cells, 96 hours, CellTiterGlo; geometric mean of at least 2; read-out: Proliferation Assay SW48 GI50
Procedure, shortened: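 Read-out is CellTiterGlo luminescence after 96 hours of compound exposure, with % growth calculated against day-0 and vehicle-treated ATP levels. SW48 seeded at 2,000 cells/well, dosed next day with eight 3-fold serial dilutions, 0.1% DMSO. GI50 reported as geometric mean, at least 2 replicates.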

[3] = target: T1, WRN helicase (aa N517-P1238) (Homo sapiens, UniProt Q14191); experiment: WRN ATPase assay (DNA dependent ATP hydrolysis, ADP-Glo); type: biochemical; details: 3 hours pre-incubation, 300 micromolar ATP, FLAP26 DNA; geometric mean of at least 2
T1 construct: The core helicase motif of the WRN protein (aa N517-P1238) was produced for this assay; His (N); ZZ (N); 3C protease cleavage site (N); made in house; host or cells: Sf21 insect cells (baculovirus; virus and BIICs made in SF9)
T1 sequence (Q14191 517-1238): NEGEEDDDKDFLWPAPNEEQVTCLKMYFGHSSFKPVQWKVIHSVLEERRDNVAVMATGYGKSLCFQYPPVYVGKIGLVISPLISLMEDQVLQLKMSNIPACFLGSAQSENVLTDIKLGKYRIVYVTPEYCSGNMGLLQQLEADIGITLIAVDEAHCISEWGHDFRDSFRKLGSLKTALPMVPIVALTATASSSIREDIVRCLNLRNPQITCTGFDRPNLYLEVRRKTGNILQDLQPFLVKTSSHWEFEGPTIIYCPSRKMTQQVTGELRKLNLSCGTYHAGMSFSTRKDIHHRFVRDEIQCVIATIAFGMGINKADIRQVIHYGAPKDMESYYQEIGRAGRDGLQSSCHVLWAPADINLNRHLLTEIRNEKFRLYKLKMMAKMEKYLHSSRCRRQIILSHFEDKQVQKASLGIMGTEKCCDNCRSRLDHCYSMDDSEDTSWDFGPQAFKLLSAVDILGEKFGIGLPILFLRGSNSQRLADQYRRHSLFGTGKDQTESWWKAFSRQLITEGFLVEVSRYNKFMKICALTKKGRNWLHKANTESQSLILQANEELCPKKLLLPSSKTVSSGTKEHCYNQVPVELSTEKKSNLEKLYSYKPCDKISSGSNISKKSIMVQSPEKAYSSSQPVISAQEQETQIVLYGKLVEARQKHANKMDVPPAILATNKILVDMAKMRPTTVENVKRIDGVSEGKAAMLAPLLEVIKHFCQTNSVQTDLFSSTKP
Procedure, shortened: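 DNA-dependent ATP hydrolysis detected as ADP by ADP-Glo luminescence, using 300 μM ATP, 0.2 nM FLAP26 substrate and 10 nM WRN aa N517-P1238 (Tris pH 7.5 buffer, 2 mM MgCl2, 50 mM NaCl). IC50s fitted from normalized duplicate half-log dilutions; reported as geometric means of at least 2 replicates.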

| GI50 [1] [nM] | GI50 [2] [nM] | IC50 [3] [nM] | SMILES |
| --- | --- | --- | --- |
| > 10000 | 1000 | 100 | CCc1c(C2CCN(C(C)=O)CC2)c(=O)n2nc(C3=CCC(OC)CC3)nc2n1CC(=O)Nc1ccc(C(F)(F)F)cc1 (stereo not drawn) [Example 139, 2-(6-(1-acetylpiperidin-4-yl)-5-ethyl-2-(4-methoxycyclohex-1-en-1-yl)-7-oxo-[1,2,4]triazolo[1,5-a]pyrimidin-4(7H)-yl)-N-(4-(trifluoromethyl)phenyl)acetamide] |
| > 10000 | 4000 | 100 | CCc1c(C2=CCN(C(C)=O)CC2)c(=O)n2nc(C3=CCC(OC)CC3)nc2n1CC(=O)Nc1ccc(C(F)(F)F)cc1 (stereo not drawn) [Example 140, 2-(6-(1-acetyl-1,2,3,6-tetrahydropyridin-4-yl)-5-ethyl-2-(4-methoxycyclohex-1-en-1-yl)-7-oxo-[1,2,4]triazolo[1,5-a]pyrimidin-4(7H)-yl)-N-(4-(trifluoromethyl)phenyl)acetamide] |
| > 10000 | 8000 | 400 | CC(=O)N1CCC(c2c(C)n(CC(=O)Nc3ccc(C(F)(F)F)cc3)c3nc(C4=CCOCC4)nn3c2=O)CC1 [Example 141, 2-(6-(1-acetylpiperidin-4-yl)-2-(3,6-dihydro-2H-pyran-4-yl)-5-methyl-7-oxo-[1,2,4]triazolo[1,5-a]pyrimidin-4(7H)-yl)-N-(4-(trifluoromethyl)phenyl)acetamide] |
| > 10000 | 5000 | 600 | CCc1c(C2=CCN(C(C)=O)CC2)c(=O)n2nc(C3=CCCCO3)nc2n1CC(=O)Nc1ccc(C(F)(F)F)cc1 [Example 142, 2-(6-(1-acetyl-1,2,3,6-tetrahydropyridin-4-yl)-2-(3,4-dihydro-2H-pyran-6-yl)-5-ethyl-7-oxo-[1,2,4]triazolo[1,5-a]pyrimidin-4(7H)-yl)-N-(4-(trifluoromethyl)phenyl)acetamide] |
| > 10000 | 4000 | 90 | Cc1c(C2CCN(C(=O)c3ccc(F)c(F)c3O)CC2)c(=O)n2nc(N3CCOCC3)nc2n1CC(=O)Nc1ccc(C(F)(F)F)cc1 [Example 146, 2-(6-(1-(3,4-difluoro-2-hydroxybenzoyl)piperidin-4-yl)-5-methyl-2-morpholino-7-oxo-[1,2,4]triazolo[1,5-a]pyrimidin-4(7H)-yl)-N-(4-(trifluoromethyl)phenyl)acetamide] |
| > 10000 | 6000 | 600 | CC(=O)N1CCN(c2c(C3CC3)n(CC(=O)Nc3ccc(C(F)(F)F)cc3)c3nc(C4=CCOCC4)nn3c2=O)CC1 [Example 147, 2-(6-(4-acetylpiperazin-1-yl)-5-cyclopropyl-2-(3,6-dihydro-2H-pyran-4-yl)-7-oxo-[1,2,4]triazolo[1,5-a]pyrimidin-4(7H)-yl)-N-(4-(trifluoromethyl)phenyl)acetamide] |
| > 10000 | 300 | 60 | Cc1c(N2CCN(C(=O)c3c(F)ccc(F)c3O)C(C)C2)c(=O)n2nc(C3=CCOCC3)nc2n1CC(=O)Nc1ccc(C(F)(F)F)cc1 (stereo not drawn) [Example 148, 2-(6-(4-(3,6-difluoro-2-hydroxybenzoyl)-3-methylpiperazin-1-yl)-2-(3,6-dihydro-2H-pyran-4-yl)-5-methyl-7-oxo-[1,2,4]triazolo[1,5-a]pyrimidin-4(7H)-yl)-N-(4-(trifluoromethyl)phenyl)acetamide] |
| > 10000 | 2000 | 90 | Cc1c(N2CCN(C(=O)c3c(O)cccc3Cl)CC2)c(=O)n2nc(C3=CCOCC3)nc2n1CC(=O)Nc1ccc(C(F)(F)F)cc1 [Example 149, 2-(6-(4-(2-chloro-6-hydroxybenzoyl)piperazin-1-yl)-2-(3,6-dihydro-2H-pyran-4-yl)-5-methyl-7-oxo-[1,2,4]triazolo[1,5-a]pyrimidin-4(7H)-yl)-N-(4-(trifluoromethyl)phenyl)acetamide] |
| > 10000 | 2000 | 90 | Cc1c(N2CCN(C(=O)c3ccc(F)c(F)c3O)CC2)c(=O)n2nc(N3CCOCC3)nc2n1CC(=O)Nc1ccc(C(F)(F)F)cc1 [Example 150, 2-(6-(4-(3,4-difluoro-2-hydroxybenzoyl)piperazin-1-yl)-5-methyl-2-morpholino-7-oxo-[1,2,4]triazolo[1,5-a]pyrimidin-4(7H)-yl)-N-(4-(trifluoromethyl)phenyl)acetamide] |
| > 10000 | > 10000 | 500 | Cc1c(N2CCN(C(=O)c3cnccc3O)CC2)c(=O)n2nc(N3CCOCC3)nc2n1CC(=O)Nc1ccc(C(F)(F)F)cc1 [Example 152, 2-(5-methyl-2-morpholino-7-oxo-6-(4-(4-oxo-1,4-dihydropyridine-3-carbonyl)piperazin-1-yl)-[1,2,4]triazolo[1,5-a]pyrimidin-4(7H)-yl)-N-(4-(trifluoromethyl)phenyl)acetamide] |
| > 10000 | 2000 | 100 | COc1cccc(C(=O)N2CCN(c3c(C)n(CC(=O)Nc4ccc(C(F)(F)F)cc4)c4nc(C5=CCOCC5)nn4c3=O)CC2)c1N [Example 155, 2-(6-(4-(2-amino-3-methoxybenzoyl)piperazin-1-yl)-2-(3,6-dihydro-2H-pyran-4-yl)-5-methyl-7-oxo-[1,2,4]triazolo[1,5-a]pyrimidin-4(7H)-yl)-N-(4-(trifluoromethyl)phenyl)acetamide] |
| > 10000 | 3000 | 200 | COC(=O)N1CC=C(c2nc3n(CC(=O)Nc4ccc(S(F)(F)(F)(F)F)cc4)c(C)c(N4CCN(C(C)=O)CC4)c(=O)n3n2)CC1 [Example 156, methyl 4-(6-(4-acetylpiperazin-1-yl)-5-methyl-7-oxo-4-(2-oxo-2-((4-(pentafluoro-16-sulfaneyl)phenyl)amino)ethyl)-4,7-dihydro-[1,2,4]triazolo[1,5-a]pyrimidin-2-yl)-3,6-dihydropyridine-1(2H)-carboxylate] |
| > 10000 | 3000 | 200 | Cc1c(N2CCN(C(=O)c3cc(F)ccc3N)CC2)c(=O)n2nc(C3=CCOCC3)nc2n1CC(=O)Nc1ccc(C(F)(F)F)cc1 [Example 157, 2-(6-(4-(2-amino-5-fluorobenzoyl)piperazin-1-yl)-2-(3,6-dihydro-2H-pyran-4-yl)-5-methyl-7-oxo-[1,2,4]triazolo[1,5-a]pyrimidin-4(7H)-yl)-N-(4-(trifluoromethyl)phenyl)acetamide] |
| 1000 | 3000 | 300 | CC(=O)N1CCN(c2c(C)n(CC(=O)Nc3ccc(Cl)cc3)c3nc(N4CCN(C(=O)OC(C)(C)C)CC4)nn3c2=O)CC1 [Example 158, tert-butyl 4-(6-(4-acetylpiperazin-1-yl)-4-(2-((4-chlorophenyl)amino)-2-oxoethyl)-5-methyl-7-oxo-4,7-dihydro-[1,2,4]triazolo[1,5-a]pyrimidin-2-yl)piperazine-1-carboxylate] |
| > 10000 | > 10000 | 600 | Cc1nnc(C(=O)N2CCN(c3c(C)n(CC(=O)Nc4ccc(C(F)(F)F)cc4)c4nc(C5=CCOCC5)nn4c3=O)CC2)[nH]1 [Example 159, 2-(2-(3,6-dihydro-2H-pyran-4-yl)-5-methyl-6-(4-(5-methyl-4H-1,2,4-triazole-3-carbonyl)piperazin-1-yl)-7-oxo-[1,2,4]triazolo[1,5-a]pyrimidin-4(7H)-yl)-N-(4-(trifluoromethyl)phenyl)acetamide] |
| > 10000 | 6000 | 600 | Cc1c(N2CCN(C(=O)c3ncccc3N)CC2)c(=O)n2nc(N3CCOCC3)nc2n1CC(=O)Nc1ccc(C(F)(F)F)cc1 [Example 160, 2-(6-(4-(3-aminopicolinoyl)piperazin-1-yl)-5-methyl-2-morpholino-7-oxo-[1,2,4]triazolo[1,5-a]pyrimidin-4(7H)-yl)-N-(4-(trifluoromethyl)phenyl)acetamide] |
| > 10000 | 3000 | 900 | CC(=O)N1CCN(c2c(C(C)C)n(CC(=O)Nc3ccc(C(F)(F)F)cc3)c3nc(C4=CCOCC4)nn3c2=O)CC1 [Example 162, 2-(6-(4-acetylpiperazin-1-yl)-2-(3,6-dihydro-2H-pyran-4-yl)-5-isopropyl-7-oxo-[1,2,4]triazolo[1,5-a]pyrimidin-4(7H)-yl)-N-(4-(trifluoromethyl)phenyl)acetamide] |
| > 10000 | 7000 | 1000 | CC(=O)N1CCN(c2c(C)n(CC(=O)Nc3ccc(C(F)(F)F)cc3)c3nc(C4=CCOCC4)nn3c2=O)CC1C (stereo not drawn) [Example 163, 2-(6-(4-acetyl-3-methylpiperazin-1-yl)-2-(3,6-dihydro-2H-pyran-4-yl)-5-methyl-7-oxo-[1,2,4]triazolo[1,5-a]pyrimidin-4(7H)-yl)-N-(4-(trifluoromethyl)phenyl)acetamide] |

| SMILES | GI50 [1] [nM] | GI50 [2] [nM] | IC50 [3] [nM] |
| --- | --- | --- | --- |
| CC(=O)N1C2CCC1CN(c1c(C)n(CC(=O)Nc3ccc(C(F)(F)F)cc3)c3nc(C4=CCOCC4)nn3c1=O)C2 [Example 161, 2-(6-(8-acetyl-3,8-diazabicyclo[3.2.1]octan-3-yl)-2-(3,6-dihydro-2H-pyran-4-yl)-5-methyl-7-oxo-[1,2,4]triazolo[1,5-a]pyrimidin-4(7H)-yl)-N-(4-(trifluoromethyl)phenyl)acetamide] | > 10000 | 5000 | 700 |
